How the values were obtained:
Format in all cases: cell-based
hROMK (human Kir1.1) = hROMK (human Kir1.1) (Homo sapiens (Human), UniProt P48048); experiment: Thallium Flux Assay (FluxOR, CHO T-Rex hROMK stable cell line); conditions: CHO T-Rex hROMK cells, 10-point concentration response curve; read-out: Human ROMK TH Flux IC50
Protocol: Solutions and reagents: Thallium flux assay was performed using FluxOR kit (F10017, Life Technologies). Loading buffer, assay buffer and stimulus buffer were prepared using kit components.
To prepare 10 ml of loading buffer: 10 μl of FluxOR dye (reconstituted in DMSO) was first added to 100 μl of powerload concentrate and this mix along with 100 μl of Probenicid (100×) was then added to 9.79 ml of HBSS. […] Stimulus buffer was composed of 15 mM Tl2SO4, 0.75 mM K2SO4 in FluxOR chloride free buffer (diluted to 1× using deionized water). The final concentration of Tl2SO4 and K2SO4 in the assay plate was 3 mM and 0.15 mM, respectively.
Plating and induction of cells: The CHO T-Rex hROMK (human Kir1.1) stable cell line was maintained in Ham's F12 media supplemented with 10% FBS, 1% Penicillin-Streptomycin, 500 μg/ml Zeocin and 10 μg/ml Blasticidin at 37° C. in a 5% CO2 incubator. […] The cell suspension was centrifuged at 1200 rpm for 5 min. After discarding the supernatant, the cells were resuspended in fresh growth media and cell concentration was determined using a hemocytometer. […] The assay plate was kept at 37° C. in a 5% CO2 incubator.
Assay protocol: On the day of experiment, media was removed and loading buffer was added (30 μl/well) to the assay plate. The cells were incubated in the loading buffer for 30 minutes at 37° C. The loading buffer was then replaced by assay buffer (30 μl/well) followed by addition of test compounds or controls. […] Each well was read for 90 sec at 2 sec interval and the stimulus buffer was added after 20 seconds of baseline recording. The final DMSO concentration was either 0.5 or 1% in the assay plate. Positive and negative controls were defined by addition of DMSO or 3 μM of a standard ROMK inhibitor, respectively, to the wells instead of a test compound.
A 10-point concentration response curve was used to estimate the IC50 value of test compounds.

hROMK = hROMK (Homo sapiens (Human), UniProt P48048); experiment: ROMK Manual Patch Clamp Assay; conditions: whole-cell manual patch clamp, hROMK current; read-out: ROMK EP IC50
Sequence of hROMK (P48048 whole entry): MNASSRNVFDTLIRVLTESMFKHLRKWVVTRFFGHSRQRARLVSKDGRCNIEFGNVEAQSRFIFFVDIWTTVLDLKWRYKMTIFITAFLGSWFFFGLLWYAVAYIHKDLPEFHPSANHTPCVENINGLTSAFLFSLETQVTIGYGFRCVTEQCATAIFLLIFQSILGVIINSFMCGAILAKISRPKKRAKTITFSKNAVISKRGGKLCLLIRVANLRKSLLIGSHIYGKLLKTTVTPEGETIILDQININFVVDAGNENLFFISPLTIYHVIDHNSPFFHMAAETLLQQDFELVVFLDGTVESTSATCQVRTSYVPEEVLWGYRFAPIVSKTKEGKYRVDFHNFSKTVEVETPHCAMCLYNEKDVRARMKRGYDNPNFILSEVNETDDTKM
Protocol: Cell culture conditions: Cells were maintained in conditions similar to those for Thallium flux assay. hROMK channel expression was induced by adding 0.6 μg/ml of Doxycycline 16-24 hrs prior to the experiments. On the day of experiment, the cells were dissociated using Versene, resuspended in growth media and plated onto coverslips 15 minutes prior to use.
The cells were voltage clamped at −75 mV in whole-cell configuration using an Axopatch 200b or Multiclamp 700b (Molecular Devices) amplifier controlled by pClamp Software (Molecular Devices). The current was recorded by applying a voltage step to −120 mV every 10 seconds. […] At the end of the experiment, the cells were perfused with bath solution containing 2 mM Ba^2+ to isolate the contribution of hROMK current.
Data analysis: Raw current values (5 traces each for control, different compound concentration and Ba^2+ treatment groups) were exported from Clampfit into Microsoft Excel where the current remaining after application of Ba^2+ was subtracted from raw current to obtain hROMK specific current.

hERG channels = hERG channels (Homo sapiens (Human), UniProt Q12809); experiment: hERG Manual Patch Clamp Assay (HEK 293 cells stably expressing hERG channels); conditions: for inhibition at 1 µM: human, HEK 293 cells stably expressing hERG channels, pH 7.4
Sequence of hERG channels (Q12809 whole entry): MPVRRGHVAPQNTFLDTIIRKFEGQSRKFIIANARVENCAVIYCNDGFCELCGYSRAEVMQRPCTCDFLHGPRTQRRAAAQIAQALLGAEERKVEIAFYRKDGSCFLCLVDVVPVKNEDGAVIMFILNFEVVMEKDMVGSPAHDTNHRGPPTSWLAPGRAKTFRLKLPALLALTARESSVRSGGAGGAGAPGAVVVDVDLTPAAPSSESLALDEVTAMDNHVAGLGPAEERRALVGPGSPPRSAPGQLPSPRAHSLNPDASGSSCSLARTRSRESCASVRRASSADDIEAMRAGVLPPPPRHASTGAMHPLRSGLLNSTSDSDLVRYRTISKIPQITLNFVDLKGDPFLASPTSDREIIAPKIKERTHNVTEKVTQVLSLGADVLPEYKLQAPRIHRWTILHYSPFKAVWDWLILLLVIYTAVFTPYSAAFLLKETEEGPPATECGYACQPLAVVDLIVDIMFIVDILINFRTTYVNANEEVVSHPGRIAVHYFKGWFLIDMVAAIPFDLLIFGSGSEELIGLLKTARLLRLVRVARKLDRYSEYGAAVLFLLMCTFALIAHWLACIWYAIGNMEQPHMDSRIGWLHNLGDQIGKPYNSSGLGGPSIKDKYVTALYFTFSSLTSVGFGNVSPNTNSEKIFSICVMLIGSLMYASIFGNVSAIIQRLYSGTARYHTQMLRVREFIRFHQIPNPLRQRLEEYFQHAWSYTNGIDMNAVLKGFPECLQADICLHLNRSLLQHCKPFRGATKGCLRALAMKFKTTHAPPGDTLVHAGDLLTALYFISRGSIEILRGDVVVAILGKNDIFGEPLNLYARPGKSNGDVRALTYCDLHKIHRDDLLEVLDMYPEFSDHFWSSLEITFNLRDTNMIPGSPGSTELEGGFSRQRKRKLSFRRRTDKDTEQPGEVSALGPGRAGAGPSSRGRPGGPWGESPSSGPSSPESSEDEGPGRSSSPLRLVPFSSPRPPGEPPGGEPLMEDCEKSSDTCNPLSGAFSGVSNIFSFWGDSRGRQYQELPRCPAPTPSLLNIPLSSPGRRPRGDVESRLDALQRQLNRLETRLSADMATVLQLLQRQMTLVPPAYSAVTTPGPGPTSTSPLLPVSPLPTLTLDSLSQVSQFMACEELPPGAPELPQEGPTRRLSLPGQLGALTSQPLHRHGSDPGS

Sequence of hROMK (human Kir1.1) (P48048 whole entry): as the sequence (P48048 whole entry) above

SMILES | IC50 (hROMK (human Kir1.1)) [nM] | IC50 (hROMK) [nM] | inhibition at 1 µM (hERG channels) [%] | hERG EP IC50 (% Inh @1 uM) (hERG channels; % inhibition of hERG current at 1 uM, manual patch clamp, HEK 293 cells) [%]
Cc1c(C(O)CNCc2ccc(-c3ccc4oc(=O)n(C)c4c3)nc2)ccc2c1COC2=O (single isomer, unassigned) [Example 23-I, 5-(5-(((2-hydroxy-2-(4-methyl-1-oxo-1,3-dihydroisobenzofuran-5-yl)ethyl)amino)methyl)pyridin-2-yl)-3-methylbenzo[d]oxazol-2(3H)-one] | 160 | 15 | 13 | –
Cc1c(C(O)CN(C)Cc2ccc(-c3ccc(C#N)c(F)c3)cc2)ccc2c1COC2=O (single isomer, unassigned) [Example 27-I, 3-fluoro-4′-(((2-hydroxy-2-(4-methyl-1-oxo-1,3-dihydroisobenzofuran-5-yl)ethyl)(methyl)amino)methyl)-[1,1′-biphenyl]-4-carbonitrile] | 40 | 6.8 | 95 | –
Cc1c([C@@H](O)CNC(=O)c2cnc(-c3ccc4oc(=O)n(C)c4c3)s2)ccc2c1COC2=O [Example 136, (R)-N-(2-hydroxy-2-(4-methyl-1-oxo-1,3-dihydroisobenzofuran-5-yl)ethyl)-2-(3-methyl-oxo-2,3-dihydrobenzo[d]oxazol-5-yl)thiazole-5-carboxamide] | 70 | 86 | 15 | –
CN(Cc1ccc(-c2ccc3oc(=O)n(C)c3c2)nc1)C[C@H](O)c1ccc2oc(=O)n(C)c2c1 [Example 6-I] | – | 11 | – | 26
Cc1c([C@@H](O)CNCc2ccc(-n3cc(C#N)c(OC(F)F)n3)nc2)ccc2c1COC2=O [Example 175, (R)-3-(difluoromethoxy)-1-(5-(((2-hydroxy-2-(4-methyl-1-oxo-1,3-dihydroisobenzofuran-5-yl)ethyl)amino)methyl)pyridin-2-yl)-1H-pyrazole-4-carbonitrile] | 3.6 | – | 86 | –
CCOc1cc(-n2ncc(CNC[C@H](O)c3ccc4c(c3C)COC4=O)n2)ncc1C#N [Example 155, (R)-4-ethoxy-6-(4-(((2-hydroxy-2-(4-methyl-1-oxo-1,3-dihydroisobenzofuran-5-yl)ethyl)amino)methyl)-2H-1,2,3-triazol-2-yl)nicotinonitrile] | 31 | – | 20 | –
Cc1c(-c2cnn(CCNC[C@H](O)c3ccc4c(c3C)COC4=O)c2)ccc2c1COC2=O [Example 43, (R)-5-(l-hydroxy-2-((2-(4-(4-methyl-1-oxo-1,3-dihydroisobenzofuran-5-yl)-1H-pyrazol-1-yl)ethyl)amino)ethyl)-4-methylisobenzofuran-1(3H)-one] | 66 | – | 7.1 | –
Cc1cc(-n2cc(CNCC(O)c3ccc4c(c3C3CC3)COC4=O)cn2)ncc1C#N (single isomer, unassigned) [Example 46-I, 6-(4-(((2-(4-cyclopropyl-1-oxo-1,3-dihydroisobenzofuran-5-yl)2-hydroxyethyl)amino)meth-yl)-1H-pyrazol-1-yl)-4-methylnicotinonitrile] | 33 | 17 | – | –
Cc1c([C@@H](O)CNCc2cnc(-n3cc(C#N)c(C4CC4)n3)nc2)ccc2c1COC2=O [Example 117, (R)-3-cyclopropyl-1-(5-(((2-hydroxy-2-(4-methyl-1-oxo-1,3-dihydroisobenzofuran-5-yl)ethyl)amino)methyl)pyrimidin-2-yl)-1H-pyrazole-4-carbonitrile] | 24 | – | 32 | –
Cc1c([C@@H](O)CNCc2cnn(-c3cc(F)c4oc(=O)n(C)c4c3)c2)ccc2c1COC2=O (single isomer, unassigned) [Example 107] | 27 | – | 20 | –
COc1cc(-n2cc(CNC[C@H](O)c3ccc4c(c3C)COC4=O)nc2C)ncc1C#N [Example 52, (R)-6-(4-(((2-hydroxy-2-(4-methyl-1-oxo-1,3-dihydroisobenzofuran-5-yl)ethyl)amino)methyl)-2-methyl-1H-imidazol-1-yl)-4-methoxynicotinonitrile] | 180 | – | 13 | –
CNc1cc(-n2cc(CNC[C@H](O)c3ccc4c(c3C)COC4=O)cn2)ncc1C#N [Example 146, (R)-6-(4-(((2-hydroxy-2-(4-methyl-1-oxo-1,3-dihydroisobenzofuran-5-yl)ethyl)amino)methyl)-1H-pyrazol-1-yl)-4-(methylamino)nicotinonitrile] | 25 | – | 61 | –
Cc1c([C@@H](O)CNCc2cnn(-c3cc(C4CC4)c(C#N)cn3)c2)ccc2c1COC2=O [Example 148, (R)-4-cyclopropyl-6-(4-(((2-hydroxy-2-(4-methyl-1-oxo-1,3-dihydroisobenzofuran-5-yl)ethyl)amino)methyl)-1H-pyrazol-1-yl)nicotinonitrile] | 200 | – | 72 | –
Cc1c([C@@H](O)CNCc2ccc(-n3ccnc3)nc2)ccc2c1COC2=O [Example 109, (R)-5-(2-(((6-(1H-imidazol-1-yl)pyridin-3-yl)methyl)amino)-1-hydroxyethyl)-4-methylisobenzofuran-1(3H)-one] | 40 | – | 12 | –
Cc1c([C@@H](O)CNCc2cnc(-n3cnc(C#N)c3)nc2)ccc2c1COC2=O [Example 45, (R)-1-(5-(((2-hydroxy-2-(4-methyl-1-oxo-1,3-dihydroisobenzofuran-5-yl)ethyl)amino)methyl)pyrimidin-2-yl)-1H-imidazole-4-carbonitrile] | 12 | – | 74 | –
CC(=O)N[C@@H](CNCc1cnn(-c2cc(C)c(C#N)cn2)c1)c1ccc2c(c1C)COC2=O [Example 39, (R)—N-(2-(((1-(5-cyano-4-methylpyridin-2-yl)-1H-pyrazol-4-yl)methyl)amino)-1-(4-methyl-1-oxo-1,3-dihydroisobenzofuran-5-yl)ethyl)acetamide] | 58 | – | 2.6 | –
Cc1cn(-c2ccc(CNC[C@H](O)c3ccc4c(c3C)COC4=O)cn2)nn1 [Example 118, (R)-5-(1-hydroxy-2-(((6-(4-methyl-1H-1,2,3-triazol-1-yl)pyridin-3-yl)methyl)amino)ethyl)-4-methylisobenzofuran-1(3H)-one] | 70 | – | 16 | –
Cc1cc(-n2cc(CNC[C@H](O)c3ccc4c(c3C)COC4=O)c3cccnc32)ncc1C#N [Example 169, (R)-6-(3-(((2-hydroxy-2-(4-methyl-1-oxo-1,3-dihydroisobenzofuran-5-yl)ethyl)amino)methyl)-1H-pyrrolo[2,3-b]pyridin-1-yl)-4-methylnicotinonitrile] | 59 | – | 79 | –
Cc1c([C@@H](O)CNCc2cnn(-c3ccc4c(c3C)COC4=O)c2)ccc2c1COC2=O [Example 75, (R)-5-(1-hydroxy-2-(((1-(4-methyl-1-oxo-1,3-dihydroisobenzofuran-5-yl)-1H-pyrazol-4-yl)methyl)amino)ethyl)-4-methylisobenzofuran-1(3H)-one] | 65 | – | 4.3 | –
Cc1cc(-n2cc(CNC[C@H](O)c3ccc4c(c3C)COC4=O)cn2)nc(C)c1C#N [Example 71, (R)-6-(4-(((2-hydroxy-2-(4-methyl-1-oxo-1,3-dihydroisobenzofuran-5-yl)ethyl)amino)methyl)-1H-pyrazol-1-yl)-2,4-dimethylnicotinonitrile] | 22 | – | 39 | –
Cc1cc(-n2cc(CNC(C)C(O)c3ccc4c(c3C)COC4=O)cn2)ncc1C#N (single isomer, unassigned) [Example 176-I, 6-(4-(((1-hydroxy-1-(4-methyl-1-oxo-1,3-dihydroisobenzofuran-5-yl)propan-2-yl)amino)methyl)-1H-pyrazol-1-yl)-4-methylnicotinonitrile] | 4 | – | 44 | –
Cc1cnc(-n2cc(CNC[C@H](O)c3ccc4c(c3C)COC4=O)cn2)cc1C#N [Example 49, (R)-2-(4-(((2-hydroxy-2-(4-methyl-1-oxo-1,3-dihydroisobenzofuran-5-yl)ethyl)amino)methyl)-1H-pyrazol-1-yl)-5-methylisonicotinonitrile] | 32 | – | 18 | –
COc1cc(-c2ncc(CNC[C@H](O)c3ccc4c(c3C)COC4=O)cn2)ncc1C#N [Example 134, (R)-6-(5-(((2-hydroxy-2-(4-methyl-1-oxo-1,3-dihydroisobenzofuran-5-yl)ethyl)amino)methyl)pyrimidin-2-yl)-4-methoxynicotinonitrile] | 77 | – | 3.8 | –
Cc1cn(-c2ncc(CNC[C@H](O)c3ccc4c(c3C)COC4=O)cn2)nc1C#N [Example 94, (R)-1-(5-(((2-hydroxy-2-(4-methyl-1-oxo-1,3-dihydroisobenzofuran-5-yl)ethyl)amino)methyl)pyrimidin-2-yl)-4-methyl-1H-pyrazole-3-carbonitrile] | 56 | – | 13 | –
Cc1c([C@@H](O)CNCc2cnn(-c3ccc(C#N)cc3)c2)ccc2c1COC2=O [Example 160, (R)-4-(4-(((2-hydroxy-2-(4-methyl-1-oxo-1,3-dihydroisobenzofuran-5-yl)ethyl)amino)methyl)-1H-pyrazol-1-yl)benzonitrile] | 24 | – | 89 | –
Cc1cc(-n2cc(CNC[C@H](O)c3ccc4c(c3C)COC4=O)n(C)c2=O)ncc1C#N [Example 159, (R)-6-(4-(((2-hydroxy-2-(4-methyl-1-oxo-1,3-dihydroisobenzofuran-5-yl)ethyl)amino)methyl)-3-methyl-2-oxo-2,3-dihydro-1H-imidazol-1-yl)-4-methylnicotinonitrile] | 93 | – | 6.5 | –
Cc1cc(-n2cc(CNC[C@H](F)c3ccc4c(c3C)COC4=O)cn2)ncc1C#N [Example 167, (R)-6-(4-(((2-fluoro-2-(4-methyl-1-oxo-1,3-dihydroisobenzofuran-5-yl)ethyl)amino)methyl)-1H-pyrazol-1-yl)-4-methylnicotinonitrile] | 68 | – | 41 | –

From patent US10723723B2, “Substituted bicycle heterocyclic derivatives useful as ROMK channel inhibitors” (BRISTOL-MYERS SQUIBB COMPANY, priority 2016, dated 2020)
